The structures appear in SMILES notation.

The test system of the experiment is phosphorylated Akt1 (Ser473) in MCF7 cells. Nature of the experiment: Cellular PI3K/Akt pathway assay (pAkt-ELISA). The class given is cell-based. To be noted: Homo sapiens, β-Heregulin (20 ng/ml) stimulation, 48 h, read-out: Akt pathway inhibition (pAkt-ELISA): IC50. As to the method:
In order to study the cellular activity of the compounds according to the invention, an ELISA-based assay has been established. The assay is based on a Sandwich ELISA kit (PathScan™ Phospho-Akt1 (Ser473); Cell Signaling, USA; #7160).
The assay detects endogenous levels of phosphorylated Akt1 protein. A phospho-Akt (Ser473) antibody (Cell Signaling, USA; #9271) has been coated onto the microwells. After incubation with cell lysates, the phosphorylated Akt protein is captured by the coated antibody. Following extensive washing, Akt1 monoclonal antibody (Cell Signaling, USA; #2967) is added to detect the captured phospho-Akt1 protein. HRP-linked anti-mouse antibody (Cell Signaling, USA; #7076) is then used to recognize the bound detection antibody. […] The magnitude of optical density for this developed color is proportional to the quantity of phosphorylated Akt1 protein. […]
Cells are harvested under nondenaturating conditions and lysed with brief sonification in 1× cell lyses buffer (20 mM Tris (pH7.5), 150 mM NaCl, 1 mM ethylene diaminetetraacetate (EDTA), 1 mM ethylene glycolbis-(2-aminoethyl)-N,N,N′,N′-tetraacetic acid (EGTA), 1% Triton X-100, 2.5 mM sodium pyrophosphate, 1 mM β-glycerolphosphate, 1 mM Na3VO4, 1 μg/ml leupeptin). […] The absorbance is read at 450 nm (Wallac Victor2; Perkin Elmer, USA) within 30 minutes after adding STOP solution. […]
A general note: In an ELISA, binding on a coated surface is turned into a signal by an enzyme label.

Take `CC(C)(N)c1ccc(C(=O)Nc2ccc(Nc3cc(-c4cccc5c4oc4ccccc45)ncn3)cc2)cc1` [Compound 69, 4-(1-Amino-1-methyl-ethyl)-N-[4-(6-dibenzofuran-4-yl-pyrimidin-4-ylamino)-phenyl]-benzamide trifluoracetate]: the IC50 amounted to 6 µM.

By IC50 is commonly meant the concentration that inhibits the measured activity by half.
